From patent publication US8883782B2, “Spiro-tetracyclic ring compounds as beta-secretase modulators and methods of use” (Amgen Inc., priority 2010, dated 2014)

The molecules below were run on Aβ40 in conditioned medium of cells stably expressing Amyloid Precursor Protein (APP) (assay: In vitro BACE cell-based assay (Aβ40 in conditioned medium, sandwich ELISA)). Conditions: Homo sapiens, HEK293, average IC50, HEK cells; read-out: HEK cell assay.
Procedure: In Vitro BACE Cell-Based Assay
The cell-based assay measures inhibition or reduction of Aβ40 in conditioned medium of test compound treated cells expressing amyloid precursor protein.
Cells stably expressing Amyloid Precursor Protein (APP) were plated at a density of 40K cells/well in 96 well plates (Costar). The cells were cultivated for 24 hours at 37° C. and 5% CO2 in DMEM supplemented with 10% FBS. The test compounds were then added to cells in 10-point dose response concentrations with the starting concentration being either 100 μM or 10 μM. The compounds were diluted from stock solutions in DMSO and the final DMSO concentration of the test compounds on cells was 0.1%. […] The IC50 of the compound was calculated from the percent of control or percent inhibition of Aβ 40 as a function of the concentration of the test compound.
The sandwich ELISA to detect Aβ 40 was performed in 96 well microtiter plates, which were pre-treated with goat anti-rabbit IgG (Pierce). The capture and detecting antibody pair that were used to detect Aβ 40 from cell supernatants were affinity purified pAb40 (Biosource) and biotinylated 6E10 (Signet Labs Inc.), respectively. The optimal concentration for the pAb40 antibody was 3 μg/ml in Superblock/TBS (Pierce) that was supplemented with 0.05% Tween 20 (Sigma).
Cellular supernatants were incubated with the capture antibody for 3 h at 4° C., followed by 3 wash steps in TBS-tween (0.05%). The detecting antibody incubation was for 2 h at 4° C., again followed by the wash steps as described previously. The final readout of the ELISA is Time-Resolved Fluorescence (counts per minute) using Delfia reagents Streptavidin-Europium and Enhancement solutions (Perkin Elmer) and the Victor 2 multilabel counter (Perkin Elmer).

Q: How did the IC50 turn out when NC1=N[C@@]2(CO1)c1cc(-c3cncc(F)c3)ccc1Oc1c2cc(N2CC[C@H](F)C2)nc1F [Example 926, (5S)-1-fluoro-7-(5-fluoro-3-pyridinyl)-3-((3S)-3-fluoro-1-pyrrolidinyl)spiro[chromeno[2,3-c]pyridine-5,4′-[1,3]oxazol]-2′-amine] was run?
A: 0.008 µM

Q: Which IC50 does the source give for COCC1SC(N)=N[C@]12c1cc(-c3cccnc3F)ccc1Oc1cnc(-c3ccnc(F)c3)cc12 (stereo partly drawn) [Example 722, (5S)-7-(2-fluoro-3-pyridinyl)-3-(2-fluoro-4-pyridinyl)-5′-(methoxymethyl)spiro[chromeno[2,3-c]pyridine-5,4′-[1,3]thiazol]-2′-amine] here?
A: 5.93 µM

Q: Which IC50 does the source give for NC1=N[C@@]2(CO1)c1cc(Br)ccc1Oc1c2cc(Cl)nc1F [Example 487, (5S)-7-bromo-3-chloro-1-fluorospiro[chromeno[2,3-c]pyridine-5,4′-[1,3]oxazol]-2′-amine] here?
A: 0.74 µM

Q: NC1=N[C@@]2(CS1)c1cc(-c3cccnc3F)ccc1Oc1cnc(-c3ccnc(F)c3)cc12 [Example 589, (5S)-7-(2-fluoro-3-pyridinyl)-3-(2-fluoro-4-pyridinyl)spiro[chromeno[2,3-c]pyridine-5,4′-[1,3]thiazol]-2′-amine] was tested. Which IC50 did it give?
A: 0.039 µM

Q: NC1=N[C@@]2(CS1)c1cc(Br)ccc1Oc1cnc(Cl)cc12 [Example 588, (5S)-7-bromo-3-chlorospiro[chromeno[2,3-c]pyridine-5,4′-[1,3]thiazol]-2′-amine] was tested. Which IC50 did it give?
A: 10 µM

Q: How did the IC50 turn out when NC1=N[C@]2(CO1)c1cc(-c3cccnc3F)ccc1Oc1c2cc(C2=CCCOC2)nc1F [Example 908, (5R)-3-(5,6-dihydro-2H-pyran-3-yl)-1-fluoro-7-(2-fluoro-3-pyridinyl)spiro[chromeno[2,3-c]pyridine-5,4′-[1,3]oxazol]-2′-amine] was run?
A: 0.609 µM

Q: How did the IC50 turn out when NC1=N[C@@]2(CO1)c1cc(-c3cccc(F)n3)ccc1Oc1cnc(-c3ccnc(F)c3)cc12 [Example 632, (5S)-3-(2-fluoro-4-pyridinyl)-7-(6-fluoro-2-pyridinyl)spiro[chromeno[2,3-c]pyridine-5,4′-[1,3]oxazol]-2′-amine] was run?
A: 0.332 µM

Q: How did the IC50 turn out when NC1=N[C@@]2(CO1)c1cc(-c3cccnc3F)ccc1Oc1ncc(C3=CCOCC3)cc12 [Example 460, (5S)-3-(3,6-dihydro-2H-pyran-4-yl)-7-(2-fluoro-3-pyridinyl)spiro[chromeno[2,3-b]pyridine-5,4′-[1,3]oxazol]-2′-amine] was run?
A: 0.0065 µM

Same assay, conditions: Homo sapiens, HEK293, average IC50; read-out: HEK cell assay

Q: COc1cncc(-c2ccc3c(c2)[C@@]2(COC(N)=N2)c2cc(OCC4(C)COC4)c(F)cc2O3)c1 [Example 329, (4S)-3′-fluoro-7′-(5-methoxy-3-pyridinyl)-2′-((3-methyl-3-oxetanyl)methoxy)spiro[1,3-oxazole-4,9′-xanthen]-2-amine] was tested. Which IC50 did it give?
A: 0.0525 µM

Q: With NC1=N[C@]2(CS1)c1cc(-c3cccnc3F)ccc1Oc1c2cc(-c2ccnc(F)c2)nc1F [Example 997, (5R)-1-fluoro-7-(2-fluoro-3-pyridinyl)-3-(2-fluoro-4-pyridinyl)spiro[chromeno[2,3-c]pyridine-5,4′-[1,3]thiazol]-2′-amine] as the molecule, how does the IC50 read?
A: 1.18 µM

Q: For NC1=N[C@@]2(CO1)c1cc(-c3cccnc3F)ccc1Oc1c(F)cc(N3CC[C@@H](F)C3)cc12 [Example 279, (4S)-4′-fluoro-7′-(2-fluoro-3-pyridinyl)-2′-((3R)-3-fluoro-1-pyrrolidinyl)spiro[1,3-oxazole-4,9′-xanthen]-2-amine], which IC50 is on record?
A: 0.0085 µM

Q: How did the IC50 turn out when NC1=N[C@@]2(CS1)c1cc(Br)ccc1Oc1cnc(Cl)cc12 [Example 994, (5S)-7-bromo-3-chlorospiro[chromeno[2,3-c]pyridine-5,4′-[1,3]thiazol]-2′-amine] was run?
A: ≥ 10 µM

Q: For NC1=N[C@@]2(CO1)c1cc(-c3cccnc3F)ccc1Oc1c(F)cc(C3=CCCOC3)cc12 [Example 129, (S)-2′-(5,6-dihydro-2H-pyran-3-yl)-4′-fluoro-7′-(2-fluoropyridin-3-yl)-5H-spiro[oxazole-4,9′-xanthen]-2-amine], which IC50 is on record?
A: 0.0032 µM

Q: For NC1=N[C@@]2(CO1)c1cc(-c3cccnc3F)ccc1Oc1c2cc(C2=COCCC2)nc1F [Example 807, (5S)-3-(3,4-dihydro-2H-pyran-5-yl)-1-fluoro-7-(2-fluoro-3-pyridinyl)spiro[chromeno[2,3-c]pyridine-5,4′-[1,3]oxazol]-2′-amine], which IC50 is on record?
A: 3.06 µM

Q: NC1=N[C@@]2(CO1)c1cc(-c3cncc(C#CCO)c3)ccc1Oc1cnc(C3=CCOCC3)cc12 [Example 826, 3-(5-((5S)-2′-amino-3-(3,6-dihydro-2H-pyran-4-yl)spiro[chromeno[2,3-c]pyridine-5,4′-[1,3]oxazol]-7-yl)-3-pyridinyl)-2-propyn-1-ol] was tested. Which IC50 did it give?
A: 0.002 µM

Q: How did the IC50 turn out when NC1=N[C@@]2(CO1)c1cc(-c3cccnc3F)ccc1Oc1c(F)cc(N3CC[C@H](F)C3)cc12 [Example 280, (S)-4′-fluoro-7′-(2-fluoropyridin-3-yl)-2′-((S)-3-fluoropyrrolidin-1-yl)-5H-spiro[oxazole-4,9′-xanthen]-2-amine] was run?
A: 0.0069 µM

Q: With NC1=N[C@@]2(CO1)c1cc(-c3cccnc3F)ccc1Oc1c(F)cc(N3CCOCC3)cc12 [Example 139, (S)-4′-fluoro-7′-(2-fluoropyridin-3-yl)-2′-morpholino-5H-spiro[oxazole-4,9′-xanthen]-2-amine] as the molecule, how does the IC50 read?
A: 0.0052 µM

Q: NC1=N[C@@]2(CO1)c1cc(-c3cccnc3F)ccc1Oc1c(F)cc(-c3ccccn3)cc12 [Example 196, (4S)-4′-fluoro-7′-(2-fluoro-3-pyridinyl)-2′-(2-pyridinyl)spiro[1,3-oxazole-4,9′-xanthen]-2-amine] was tested. Which IC50 did it give?
A: 0.0097 µM

Same assay, conditions: Homo sapiens, HEK293, read-out: HEK cell assay (uM)

Q: For NC1=N[C@@]2(CO1)c1cc(-c3cccnc3F)ccc1Oc1cnc(N3CC[C@@H](F)C3)cc12 [Example 416, (5S)-7-(2-fluoro-3-pyridinyl)-3-((3R)-3-fluoro-1-pyrrolidinyl)spiro[chromeno[2,3-c]pyridine-5,4′-[1,3]oxazol]-2′-amine], which IC50 is on record?
A: 0.0049 µM

Q: How did the IC50 turn out when NC1=N[C@@]2(CO1)c1cc(-c3cccnc3F)ccc1Oc1cnc(N3CC[C@H](F)C3)cc12 [Example 133, (S)-7-(2-fluoropyridin-3-yl)-3-((S)-3-fluoropyrrolidin-1-yl)-5′H-spiro[chromeno[2,3-c]pyridine-5,4′-oxazol]-2′-amine] was run?
A: 0.0096 µM

Same assay, conditions: average IC50, HEK cells; read-out: HEK cell assay

Q: How did the IC50 turn out when “2′-amino-9-fluoro-7-((3-methyl-3-oxetanyl)ethynyl)spiro[chromeno[2,3-c]pyridine-5,4′-[1,3]oxazol]-3-yl)benzonitrile [Example 694]” was run?
A: 1.09 µM

Same assay, conditions: average IC50; read-out: HEK cell assay

Q: With “(4R)-4′-fluoro-2′-methoxy-7′-(5-pyrimidinyl)spiro[1,3-thiazole-4,9′-xanthen]-2-amine [Example 217]” as the molecule, how does the IC50 read?
A: 1.57 µM

Q: With CC(C)(C)C#Cc1cnc2c(c1)[C@]1(COC(N)=N1)c1cc(-c3cncnc3)c(F)cc1O2 [Example 340, (5S)-3-(3,3-dimethyl-1-butyn-1-yl)-8-fluoro-7-(5-pyrimidinyl)spiro[chromeno[2,3-b]pyridine-5,4′-[1,3]oxazol]-2′-amine] as the molecule, how does the IC50 read?
A: 0.0843 µM

Q: How did the IC50 turn out when “(4S)-7′-bromo-4′-fluoro-2′-methoxyspiro[1,3-thiazole-4,9′-xanthen]-2-amine [Example 218]” was run?
A: 0.128 µM

Q: Which IC50 does the source give for “(4S)-4′-fluoro-2′-methoxy-7′-(5-pyrimidinyl)spiro[1,3-thiazole-4,9′-xanthen]-2-amine [Example 216]” here?
A: 0.045 µM

These molecules were tested against Beta Secretase enzyme (BACE) (Homo sapiens, UniProt P56817) (assay: In vitro enzymatic BACE FRET (fluorescence resonance energy transfer) assay). Conditions: average IC50, enzyme assay; read-out: BACE 1 FRET assay.
Chain of Beta Secretase enzyme (BACE) (P56817 46-501, species assumed): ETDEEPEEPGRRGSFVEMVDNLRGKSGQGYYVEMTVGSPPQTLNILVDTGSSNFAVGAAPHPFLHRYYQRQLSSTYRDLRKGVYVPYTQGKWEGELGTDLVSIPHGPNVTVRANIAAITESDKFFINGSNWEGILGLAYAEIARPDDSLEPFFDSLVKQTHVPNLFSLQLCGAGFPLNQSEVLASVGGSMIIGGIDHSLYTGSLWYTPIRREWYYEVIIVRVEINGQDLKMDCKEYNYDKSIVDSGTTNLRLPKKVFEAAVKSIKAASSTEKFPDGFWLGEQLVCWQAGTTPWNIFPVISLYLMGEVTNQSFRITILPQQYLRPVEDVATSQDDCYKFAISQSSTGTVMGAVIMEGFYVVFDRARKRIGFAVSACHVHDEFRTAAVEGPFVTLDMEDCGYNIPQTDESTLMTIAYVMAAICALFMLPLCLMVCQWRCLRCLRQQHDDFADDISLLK
Type: biochemical
Procedure: In Vitro Enzymatic Bace Fret (Fluorescence Resonance Energy Transfer) Assay (Enzyme Assay Data in the Example Table I)
The assay buffer used in this screen is 0.05 M acetate, pH 4.2, 10% DMSO final, 100 uM genapol (which is a nonionic detergent, below its Critical Micelle Concentration). […] This assay is effectively started by the addition of FRET substrate (50 nM) and the combination is incubated for one hour. The FRET assay is terminated with by addition of Tris buffer, which raises the pH to neutrality, and the fluorescence is determined. The FRET substrate is a peptide with commercially available fluorophore and quencher, on opposite sides of the BACE cleavage site.

Q: Which IC50 does the source give for NC1=N[C@@]2(CO1)c1cc(-c3cncc(F)c3)ccc1Oc1c2cc(N2CC[C@H](F)C2)nc1F [Example 926, (5S)-1-fluoro-7-(5-fluoro-3-pyridinyl)-3-((3S)-3-fluoro-1-pyrrolidinyl)spiro[chromeno[2,3-c]pyridine-5,4′-[1,3]oxazol]-2′-amine] here?
A: 0.3 nM

Q: With COCC1SC(N)=N[C@]12c1cc(-c3cccnc3F)ccc1Oc1cnc(-c3ccnc(F)c3)cc12 (stereo partly drawn) [Example 722, (5S)-7-(2-fluoro-3-pyridinyl)-3-(2-fluoro-4-pyridinyl)-5′-(methoxymethyl)spiro[chromeno[2,3-c]pyridine-5,4′-[1,3]thiazol]-2′-amine] as the molecule, how does the IC50 read?
A: 335 nM

Q: COc1cncc(-c2ccc3c(c2)[C@@]2(COC(N)=N2)c2cc(OCC4(C)COC4)c(F)cc2O3)c1 [Example 329, (4S)-3′-fluoro-7′-(5-methoxy-3-pyridinyl)-2′-((3-methyl-3-oxetanyl)methoxy)spiro[1,3-oxazole-4,9′-xanthen]-2-amine] was tested. Which IC50 did it give?
A: 8.9 nM

Q: With NC1=N[C@@]2(CO1)c1cc(Br)ccc1Oc1c2cc(Cl)nc1F [Example 487, (5S)-7-bromo-3-chloro-1-fluorospiro[chromeno[2,3-c]pyridine-5,4′-[1,3]oxazol]-2′-amine] as the molecule, how does the IC50 read?
A: 3680 nM

Q: How did the IC50 turn out when NC1=N[C@@]2(CO1)c1cc(-c3cncc(F)c3)ccc1Oc1c(F)cc([C@@H]3CCOC3)cc12 [Example 297, (4S)-4′-fluoro-7′-(5-fluoro-3-pyridinyl)-2′-((3S)-tetrahydro-3-furanyl)spiro[1,3-oxazole-4,9′-xanthen]-2-amine] was run?
A: 5.2 nM

Q: NC1=N[C@]2(CO1)c1cc(-c3cccc(Cl)c3)ccc1Oc1cnc(N3CCC(F)(F)C3)cc12 [Example 433, (5R)-7-(3-chlorophenyl)-3-(3,3-difluoro-1-pyrrolidinyl)spiro[chromeno[2,3-c]pyridine-5,4′-[1,3]oxazol]-2′-amine] was tested. Which IC50 did it give?
A: 25 nM

Q: Which IC50 does the source give for NC1=N[C@@]2(CO1)c1cc(-c3cccnc3)ccc1Oc1c2cc(-c2ccnc(F)c2)nc1F [Example 491, (5S)-1-fluoro-3-(2-fluoro-4-pyridinyl)-7-(3-pyridinyl)spiro[chromeno[2,3-c]pyridine-5,4′-[1,3]oxazol]-2′-amine] here?
A: 2 nM
